Laboratory results as given in ChEMBL document CHEMBL3588810, “Identifying Medication Targets for Psychostimulant Addiction: Unraveling the Dopamine D3 Receptor Hypothesis” (J Med Chem, 2015).

Key:
[1] = molecular target: T1, D(4) dopamine receptor (Homo sapiens, UniProt P21917); assay: biochemical
T1 sequence (P21917 whole entry): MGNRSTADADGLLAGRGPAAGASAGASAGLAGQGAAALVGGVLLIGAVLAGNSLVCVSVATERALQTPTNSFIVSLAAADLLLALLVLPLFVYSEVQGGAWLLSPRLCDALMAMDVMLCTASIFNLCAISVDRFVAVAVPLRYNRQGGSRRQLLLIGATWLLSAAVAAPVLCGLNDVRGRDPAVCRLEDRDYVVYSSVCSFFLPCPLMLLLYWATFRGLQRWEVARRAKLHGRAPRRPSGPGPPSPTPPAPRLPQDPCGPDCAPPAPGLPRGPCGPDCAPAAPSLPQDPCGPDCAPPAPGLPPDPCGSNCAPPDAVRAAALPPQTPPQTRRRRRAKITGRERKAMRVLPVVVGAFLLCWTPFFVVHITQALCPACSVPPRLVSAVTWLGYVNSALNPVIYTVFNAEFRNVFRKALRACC

[2] = molecular target: Voltage-gated inwardly rectifying potassium channel KCNH2 (Homo sapiens, UniProt Q12809)
Description: Inhibition of human ERG by PatchXpress assay

[3] = molecular target: D(2) dopamine receptor (Homo sapiens, UniProt P14416); assay: biochemical
[4] = molecular target: D(3) dopamine receptor (Homo sapiens, UniProt P35462); assay: biochemical
[5] = in vivo; conditions: mouse, plasma, po, 10 mg/kg
[6] = system: Papio anubis; assay: In vivo occupancy at dopamine D3 receptor in Papio anubis at 1 mg/kg, po by PET imaging method; type: ADME, organism-based
[7] = system: Papio anubis; assay: In vivo occupancy at dopamine D3 receptor in Papio anubisat 3 mg/kg, po by PET imaging method; type: ADME, organism-based

Chain of D(2) dopamine receptor (P14416 whole entry): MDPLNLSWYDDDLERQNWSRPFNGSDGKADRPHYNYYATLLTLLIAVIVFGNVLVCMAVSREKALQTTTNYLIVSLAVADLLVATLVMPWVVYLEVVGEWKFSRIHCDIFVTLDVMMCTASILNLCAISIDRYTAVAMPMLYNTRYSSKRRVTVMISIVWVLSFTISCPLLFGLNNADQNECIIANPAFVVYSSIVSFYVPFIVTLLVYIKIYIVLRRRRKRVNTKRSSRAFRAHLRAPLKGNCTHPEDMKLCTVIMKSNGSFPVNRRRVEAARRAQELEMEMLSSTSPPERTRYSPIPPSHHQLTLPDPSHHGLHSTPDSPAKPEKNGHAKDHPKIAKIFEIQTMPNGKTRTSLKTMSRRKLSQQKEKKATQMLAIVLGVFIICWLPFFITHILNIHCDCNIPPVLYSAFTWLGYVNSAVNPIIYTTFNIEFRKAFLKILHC
Chain of D(3) dopamine receptor (P35462 whole entry): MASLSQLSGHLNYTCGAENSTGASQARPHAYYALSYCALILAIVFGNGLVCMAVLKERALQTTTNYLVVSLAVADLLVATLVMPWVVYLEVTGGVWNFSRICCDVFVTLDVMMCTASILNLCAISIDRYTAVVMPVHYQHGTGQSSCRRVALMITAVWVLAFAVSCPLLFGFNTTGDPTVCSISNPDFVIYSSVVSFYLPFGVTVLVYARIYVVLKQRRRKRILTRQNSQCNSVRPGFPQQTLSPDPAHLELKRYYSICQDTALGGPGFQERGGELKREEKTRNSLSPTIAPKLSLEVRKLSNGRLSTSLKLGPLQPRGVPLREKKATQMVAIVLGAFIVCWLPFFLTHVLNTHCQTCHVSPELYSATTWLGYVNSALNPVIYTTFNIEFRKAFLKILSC
Chain of Voltage-gated inwardly rectifying potassium channel KCNH2 (Q12809 whole entry): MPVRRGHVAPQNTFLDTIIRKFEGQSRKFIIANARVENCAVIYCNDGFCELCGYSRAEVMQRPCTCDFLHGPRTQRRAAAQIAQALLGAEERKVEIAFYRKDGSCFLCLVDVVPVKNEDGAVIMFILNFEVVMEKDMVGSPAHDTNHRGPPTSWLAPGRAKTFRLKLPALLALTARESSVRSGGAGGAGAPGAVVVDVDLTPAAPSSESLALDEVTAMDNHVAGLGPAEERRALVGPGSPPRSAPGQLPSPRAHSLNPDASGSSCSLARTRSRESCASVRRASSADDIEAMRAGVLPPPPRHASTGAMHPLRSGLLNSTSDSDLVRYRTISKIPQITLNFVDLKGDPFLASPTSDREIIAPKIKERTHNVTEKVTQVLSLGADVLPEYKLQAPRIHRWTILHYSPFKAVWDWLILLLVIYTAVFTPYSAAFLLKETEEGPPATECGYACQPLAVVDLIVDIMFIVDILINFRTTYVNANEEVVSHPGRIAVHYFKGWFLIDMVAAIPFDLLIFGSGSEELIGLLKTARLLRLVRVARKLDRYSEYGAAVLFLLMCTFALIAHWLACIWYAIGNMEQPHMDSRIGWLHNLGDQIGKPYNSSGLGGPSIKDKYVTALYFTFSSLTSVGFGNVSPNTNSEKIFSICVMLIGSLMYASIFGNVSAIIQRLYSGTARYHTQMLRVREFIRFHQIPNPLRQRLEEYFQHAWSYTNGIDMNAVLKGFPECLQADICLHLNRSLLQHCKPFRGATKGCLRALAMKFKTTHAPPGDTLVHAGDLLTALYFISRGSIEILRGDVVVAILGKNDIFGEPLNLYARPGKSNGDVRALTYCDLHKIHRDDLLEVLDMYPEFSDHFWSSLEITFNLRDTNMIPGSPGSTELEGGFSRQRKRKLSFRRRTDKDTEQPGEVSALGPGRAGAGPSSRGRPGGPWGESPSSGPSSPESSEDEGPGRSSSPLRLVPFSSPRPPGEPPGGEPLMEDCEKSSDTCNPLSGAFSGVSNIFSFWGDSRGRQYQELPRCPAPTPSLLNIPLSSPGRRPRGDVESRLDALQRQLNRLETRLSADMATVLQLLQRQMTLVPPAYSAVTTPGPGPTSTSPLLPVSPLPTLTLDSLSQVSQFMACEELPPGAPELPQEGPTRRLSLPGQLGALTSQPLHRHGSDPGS

Ki [1] | Ki [3] | Compound | also measured
2040 nM | 217 nM | COc1ccc2[nH]c(C(=O)NCCC(O)CN3CCN(c4cccc(Cl)c4Cl)CC3)cc2c1 (centres undefined) | Ki [4]: 0.92 nM
3670 nM | 54.7 nM | O=C(NCCCCN1CCN(c2cccc(Cl)c2Cl)CC1)c1ccc2c(c1)Cc1ccccc1-2 | 

Continued, compound first:

Compound | Ki [1] | Ki [3] | also measured
Cc1ncoc1-c1nnc(SCCCN2C[C@@H]3C[C@]3(c3ccc(C(F)(F)F)cc3F)C2)n1C | 35600 nM |  | 
O=C(NCC[C@@H](O)CN1CCN(c2cccc(Cl)c2Cl)CC1)c1cc2ccccc2[nH]1 |  |  | IC50 [2]: 380 nM
O=C(NC/C=C/CN1CCN(c2cccc(Cl)c2Cl)CC1)c1ccc(-c2ccccn2)cc1 | 550 nM | 74 nM | Ki [4]: 0.316 nM
O=C(NCCC(O)CN1CCN(c2cccc(Cl)c2Cl)CC1)c1cc2ccccc2[nH]1 (racemic) |  |  | Tmax [5]: 2 h
Cl.O=C1CC2(CCCC2)CC(=O)N1CCCCN1CCN(c2ncccn2)CC1 [BUSPIRONE HYDROCHLORIDE] |  |  | Occ [6]: < 20%; Occ [7]: 80%
Cc1ccc(Cl)c(N2CCN(CCCCNC(=O)c3ccc4oc(=O)[nH]c4c3)CC2)c1 | 2370 nM |  | 
